In US7888349B2, “Piperazine, [1,4]Diazepane, [1,4]Diazocane, and [1,5]Diazocane fused imidazo ring compounds” (3M Innovative Properties Company, priority 2003, dated 2011):
Where a name gives a salt, the structure may show the parent alone.

| Compound | melting point [°C] |
| --- | --- |
| CS(=O)(=O)N1CCn2c(nc3c(N)nc4ccccc4c32)C1 (as salt: trifluoroacetate) [Example 5, 9-(Methylsulfonyl)-8,9,10,11-tetrahydropyrazino[1′,2′:1,2]imidazo[4,5-c]quinolin-6-amine trifluoroacetate] | 242 to 243 |
| CC(C)(C)[Si](C)(C)OC1CN(S(C)(=O)=O)Cc2nc3c(N)nc4ccccc4c3n2C1 (centres unmarked) [Example 1, 11-{[tert-Butyl(dimethyl)silyl]oxy}-9-(methylsulfonyl)-9,10,11,12-tetrahydro-8H-[1,4]diazepino[1′,2′:1,2]imidazo[4,5-c]quinolin-6-amine] | 256 to 258 |
| CS(=O)(=O)N1Cc2nc3c(N)nc4ccccc4c3n2CC(O)C1 (centres unmarked) [Example 2, 6-Amino-9-(methylsulfonyl)-9,10,11,12-tetrahydro-8H-[1,4]diazepino[1′,2′:1,2]imidazo[4,5-c]quinolin-11-ol] | 282 to 283 |
| CC1(C)Cn2c(nc3c(N)nc4ccccc4c32)CN1S(C)(=O)=O [Example 3, 10,10-Dimethyl-9-(methylsulfonyl)-8,9,10,11-tetrahydropyrazino[1′,2′:1,2]imidazo[4,5-c]quinolin-6-amine] | 227 to 228 |
| CC(C)(C)OC(=O)N1CCn2c(nc3c(N)nc4ccccc4c32)C1 [Example 4, tert-Butyl 6-amino-10,11-dihydropyrazino[1′,2′:1,2]imidazo[4,5-c]quinoline-9(8H)-carboxylate] | 207 |
| CC(C)(C)OC(=O)N1CCCn2c(nc3c(N)nc4ccccc4c32)C1 [Example 6, tert-Butyl 6-amino-11,12-dihydro-8H-[1,4]diazepino[1′,2′:1,2]imidazo[4,5-c]quinoline-9(10H)-carboxylate] | 213 |

Continued, values first:

| melting point [°C] | Compound |
| --- | --- |
| 250 to 250.9 | CS(=O)(=O)N1CCCn2c(nc3c(N)nc4ccccc4c32)C1 (as salt: trifluoroacetate) [Example 7, 9-(Methylsulfonyl)-9,10,11,12-tetrahydro-8H-[1,4]diazepino[1′,2′:1,2]imidazo[4,5-c]quinolin-6-amine trifluoroacetate] |
| 280 | CS(=O)(=O)N1CCCn2c(nc3c(N)nc4ccccc4c32)C1 [Example 8, 9-(Methylsulfonyl)-9,10,11,12-tetrahydro-8H-[1,4]diazepino[1′,2′:1,2]imidazo[4,5-c]quinolin-6-amine] |
| 270 to 272 | CS(=O)(=O)N1CCCn2c(nc3c(N)nc4c(c32)CCCC4)C1 [Example 363, 9-(Methylsulfonyl)-2,3,4,8,9,10,11,12-octahydro-1H-[1,4]diazepino[1′,2′:1,2]imidazo[4,5c]quinolin-6-amine] |
| 303 | CS(=O)(=O)N1CCCn2c(nc3c(N)nc4cc(Br)ccc4c32)C1 [Example 365, 3-Bromo-9-(methylsulfonyl)-9,10,11,12-tetrahydro-8H-[1,4]diazepino[1′,2′:1,2]imidazo[4,5-c]quinolin-6-amine] |
| 302 | CS(=O)(=O)N1CCCn2c(nc3c(N)nc4cc(-c5cccnc5)ccc4c32)C1 [Example 366, 9-(Methylsulfonyl)-3-pyridin-3-yl-9,10,11,12-tetrahydro-8H-[1,4]diazepino[1′,2′:1,2]imidazo[4,5-c]quinolin-6-amine] |
| 315 to 317 | CS(=O)(=O)N1CCn2c(nc3c(N)nc4cc(Br)ccc4c32)C1 [Example 367, 3-Bromo-9-(methylsulfonyl)-8,9,10,11-tetrahydropyrazino[1′,2′:1,2]imidazo[4,5-c]quinolin-6-amine] |
| 266 to 268 | CS(=O)(=O)N1CCn2c(nc3c(N)nc4cc(OCc5ccccc5)ccc4c32)C1 [Example 368, 3-(Benzyloxy)-9-(methylsulfonyl)-8,9,10,11-tetrahydropyrazino[1′,2′:1,2]imidazo[4,5-c]quinolin-6-amine] |
| 235 to 236 | CS(=O)(=O)N1CCCn2c(nc3c(N)nc4cc(OCc5ccccc5)ccc4c32)C1 [Example 369, 3-(Benzyloxy)-9-(methylsulfonyl)-9,10,11,12-tetrahydro-8H-[1,4]diazepino[1′,2′:1,2]imidazo[4,5-c]quinolin-6-amine] |
